These results are taken from patent US20220127297A1, “Novel Antibacterial 3"-Derivatives Of 4,6-Disubstituted 2,5-Dideoxystreptamine Aminoglycoside Antibiotics” (AGILeBiotics B.V., priority 2018, published 2022).

≈ marks a conversion by molar mass, not a printed value.

For one test, the system named is E. coli (AAC(3)III). Put plainly: MIC 50, broth micro-dilution, E. coli expressing AAC(3)III. The format is cell-based, Escherichia coli. In general terms: Dilution methods test growth across graded concentrations, often in twofold steps.
The test system of another test is E. coli (APH(3′)Ia). Kind of test: MIC 50, broth micro-dilution, E. coli expressing APH(3′)Ia. It counts as cell-based, Escherichia coli. The essentials:
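Broth microdilution in Mueller Hinton Broth 2, 18 h, 37° C, 900 rpm. Host: E. coli ATCC 25922 transformed with the enzyme plasmid, KanaA-selected. Inoculum OD 0.1; compound 64 μM-31.3 nM, 2-fold series, triplicate. Readout OD600; MIC50 = half-max growth.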

[1] abbreviates: Escherichia coli, ATCC25922, ATCC25922 harboring plasmid encoding AAC(3)III.
Setting [2] is: Escherichia coli, ATCC25922, ATCC25922 harboring plasmid encoding APH(3′)Ia.
[3] abbreviates: ATCC25922 harboring plasmid encoding AAC(3)III.
Where [4] appears, read: ATCC25922 harboring plasmid encoding APH(3′)Ia.

Consider `N=C(NC[C@@H]1CNCCO1)NC1[C@@H](O)C(OC2[C@@H](F)[C@H](O[C@H]3OC(CN)[C@@H](O)CC3N)C(N)C[C@H]2NC(=O)[C@@H](O)CCN)O[C@H](CO)[C@H]1O` (stereo partly drawn) [ABX5040, Tobra-AHB-F-Gua (S) morpholin-2-yl methyl], for which the MIC50 against E. coli (AAC(3)III) (setting [1]) turned out to be 0.25 µM (≈ 0.178 µg/mL); with E. coli (APH(3′)Ia) (setting [2]), 1 µM (≈ 0.712 µg/mL).
For `NCC[C@H](O)C(=O)N[C@@H]1C[C@H](N)[C@@H](O[C@H]2O[C@H](CN)[C@@H](O)[C@H](O)[C@H]2O)[C@H](O)[C@H]1O[C@H]1O[C@H](CO)[C@@H](O)[C@H](N)[C@H]1O` [Amikacin, amikacin, reference compound], the MIC50 in the test with E. coli (AAC(3)III) (setting [1]) amounted to 2 µM (≈ 1.17 µg/mL); with E. coli (APH(3′)Ia) (setting [2]), 8 µM (≈ 4.68 µg/mL).
Regarding `NCC[C@H](O)C(=O)N[C@@H]1CC(N)[C@@H](O[C@H]2OC(CN)[C@@H](O)[C@@H](O)C2N)[C@H](F)C1OC1O[C@H](CO)[C@@H](O)C(N)[C@H]1O` (stereo partly drawn) [ABX4003, 3′Epi-KanaB-AHB-F], the “MIC50” value in the test on E. coli (AAC(3)III) (setting [3]) is 2 µM (≈ 1.17 µg/mL); with E. coli (APH(3′)Ia) (setting [4]), 8 to 16 µM.
As for `N=C(NC[C@H]1CCNC1)NC1[C@@H](O)C(OC2[C@@H](F)[C@H](O[C@H]3OC(CN)[C@@H](O)CC3N)C(N)C[C@H]2NC(=O)[C@@H](O)CCN)O[C@H](CO)[C@H]1O` (stereo partly drawn) [ABX5042, Tobra-AHB-F-Gua (S) pyrrolidine-3-ylmethyl], the MIC50 came out at 0.125 µM (≈ 0.087 µg/mL) with E. coli (AAC(3)III) (setting [1]) and 0.25 µM (≈ 0.174 µg/mL) with E. coli (APH(3′)Ia) (setting [2]).
For `N=C(NCCCO)NC1[C@@H](O)C(OC2[C@@H](F)[C@H](O[C@H]3OC(CN)[C@@H](O)CC3N)C(N)C[C@H]2NC(=O)[C@@H](O)CCN)O[C@H](CO)[C@H]1O` (stereo partly shown) [ABX5041, Tobra-AHB-F-Gua 3-hydroxy-propyl] the same measures were 0.5 µM (≈ 0.335 µg/mL) and 1 µM (≈ 0.671 µg/mL).
For `N=C(N)NC1[C@@H](O)C(OC2[C@@H](F)[C@H](O[C@H]3OC(CN)[C@@H](O)[C@H](O)C3O)C(N)C[C@H]2NC(=O)[C@@H](O)CCN)O[C@H](CO)[C@H]1O` (stereo partly drawn) [ABX3003, 3′epi-KanaA-AHB-F-Gua] the same measures were 1 µM (≈ 0.63 µg/mL) and 8 µM (≈ 5.04 µg/mL).
For the molecule `N=C(N)N[C@@H]1[C@@H](O)[C@@H](O[C@@H]2[C@@H](O)[C@H](O[C@H]3O[C@H](CN)[C@@H](O)[C@@H](O)[C@H]3N)[C@@H](N)C[C@H]2NC(=O)[C@@H](O)CCN)O[C@H](CO)[C@H]1O` [ABX4005, 3′Epi-KanaB-AHB-Gua], the entries for the “MIC50” value against E. coli (AAC(3)III) (setting [3]) and with E. coli (APH(3′)Ia) (setting [4]) were 4 µM (≈ 2.51 µg/mL) and 16 µM (≈ 10 µg/mL), respectively.
As to `N=C(N)NC1[C@@H](O)C(OC2[C@@H](F)[C@H](O[C@H]3OC(CNCCO)[C@@H](O)CC3N)C(N)C[C@H]2NC(=O)[C@@H](O)CCN)O[C@H](CO)[C@H]1O` (stereo partly shown) [ABX5045, 6N-2-hydroxy-ethyl-Tobra-AHB-F-Gua], the MIC50 in the test with E. coli (AAC(3)III) (setting [1]) was 0.5 to 1 µM (≈ 0.328 to 0.657 µg/mL); with E. coli (APH(3′)Ia) (setting [2]) it was 1 µM (≈ 0.657 µg/mL).
On to `N=C(NCCCN)NC1[C@@H](O)C(OC2[C@@H](F)[C@H](O[C@H]3OC(CN)[C@@H](O)CC3N)C(N)C[C@H]2NC(=O)[C@@H](O)CCN)O[C@H](CO)[C@H]1O` (stereo partly shown) [ABX5030, Tobra-AHB-F-Gua-3-amino-propyl], for which the MIC50 against E. coli (AAC(3)III) (setting [1]) was found to be 0.25 µM (≈ 0.167 µg/mL); against E. coli (APH(3′)Ia) (setting [2]), 2 µM (≈ 1.34 µg/mL).
For `CNCCNC(=N)NC1[C@@H](O)C(OC2[C@@H](F)[C@H](O[C@H]3OC(CN)[C@@H](O)CC3N)C(N)C[C@H]2NC(=O)[C@@H](O)CCN)O[C@H](CO)[C@H]1O` (stereo partly shown) [ABX5038, Tobra-AHB-F-Gua 2-(methylamino)ethyl] the same measures were 0.25 µM (≈ 0.167 µg/mL) and 0.5 µM (≈ 0.335 µg/mL).
For `N=C(NCC1CCOC1)NC1[C@@H](O)C(OC2[C@@H](F)[C@H](O[C@H]3OC(CN)[C@@H](O)CC3N)C(N)C[C@H]2NC(=O)[C@@H](O)CCN)O[C@H](CO)[C@H]1O` (stereo partly shown) [ABX5051, Tobra-AHB-F-Gua tetrahydrofuran-3-yl methyl] the same measures were 0.5 to 1 µM (≈ 0.348 to 0.697 µg/mL) and 1 µM (≈ 0.697 µg/mL).
For `C[C@@H](N)CCNC(=N)NC1[C@@H](O)C(OC2[C@@H](F)[C@H](O[C@H]3OC(CN)[C@@H](O)CC3N)C(N)C[C@H]2NC(=O)[C@@H](O)CCN)O[C@H](CO)[C@H]1O` (stereo partly drawn) [ABX5047, Tobra-AHB-F-Gua (R) 3-amino-butyl] the same measures were 0.25 µM (≈ 0.171 µg/mL) and 0.5 µM (≈ 0.342 µg/mL).
With `CC(C)(C)CCNC(=N)NC1[C@@H](O)C(OC2[C@@H](F)[C@H](O[C@H]3OC(CN)[C@@H](O)CC3N)C(N)C[C@H]2NC(=O)[C@@H](O)CCN)O[C@H](CO)[C@H]1O` (stereo partly shown) [ABX5025, Tobra-AHB-F-Gua 2-tBu-ethyl], the MIC50 in the test with E. coli (AAC(3)III) (setting [1]) came to 0.5 µM (≈ 0.348 µg/mL); in the test with E. coli (APH(3′)Ia) (setting [2]) it was 1 µM (≈ 0.697 µg/mL).
On to `N=C(NCCN)NC1C(O)[C@@H](CO)OC(OC2C(F)[C@H](O[C@H]3OC(CN)[C@@H](O)CC3N)C(N)C[C@H]2NC(=O)[C@@H](O)CCN)[C@@H]1O` (stereo partly shown) [ABX5020, Tobra-AHB-F-Gua-2-amino-ethyl], for which the MIC50 against E. coli (AAC(3)III) (setting [1]) is 0.25 to 0.5 µM (≈ 0.164 to 0.328 µg/mL); in the test on E. coli (APH(3′)Ia) (setting [2]), 1 to 2 µM (≈ 0.656 to 1.31 µg/mL).

As usually defined, the MIC50 is an inhibitory concentration at the 50% level, which refers to growth in some studies and to a panel of isolates in others. A lower MIC50 goes with higher susceptibility.
